Literature values as cited in publication PMC8583936, “Machine Learning Assisted Approach for Finding Novel High Activity Agonists of Human Ectopic Olfactory Receptors” (International Journal of Molecular Sciences, 2021).
Read-outs that look alike come from different tables or passages of the source.

Molecular target: T1, OR1A1 (Homo sapiens, UniProt Q9P1Q5)
T1 sequence (Q9P1Q5 1-309): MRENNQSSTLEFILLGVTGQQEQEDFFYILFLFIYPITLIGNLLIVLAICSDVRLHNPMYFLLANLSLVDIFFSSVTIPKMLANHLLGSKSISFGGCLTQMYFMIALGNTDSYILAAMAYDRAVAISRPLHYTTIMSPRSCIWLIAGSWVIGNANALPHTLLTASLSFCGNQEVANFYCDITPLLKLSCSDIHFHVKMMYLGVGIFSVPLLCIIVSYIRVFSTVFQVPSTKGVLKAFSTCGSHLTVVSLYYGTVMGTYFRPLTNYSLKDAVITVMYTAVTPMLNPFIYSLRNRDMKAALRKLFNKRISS
Conditions: cited from earlier work

[1] = Table S1, ref Supplement references [1]-[9] as printed after each odorant name

Compound	Class (agonist / non-agonist / conflicting info.) for OR1A1 [1]	Class (agonist / non-agonist / conflicting info.) for OR1A1
Cc1cnccn1 [2-methylpyrazine]	Non-agonist	–
CC1C(C)(C)C2=C(C(=O)CCC2)C1(C)C (stereo not shown) [Cashmeran]	Non-agonist	–
CCCCCCCC(=O)OC [Methyl octanoate]	Non-agonist	–
C=CC(=C)CC/C=C(\C)CCC=C(C)C [Trans-beta-farnesene]	Non-agonist	–
C[C@@H]1CCCCCCCCCCCCC(=O)C1 [Muscone]	Conflicting info.	–
C=CC(C)(O)CCC=C(C)CCC=C(C)C (mixture of isomers) [Nerolidol]	Agonist	–
Oc1ccccc1 [Phenol]	–	Non-agonist
O=C(O)CCCCC(=O)O [Adipic acid]	Non-agonist	–
CCCCS [Butane thiol]	Non-agonist	–
CN(C)C [Trimethylamine]	–	Non-agonist
CC(=O)c1cc(C(C)(C)C)cc2c1CCC2(C)C [Celestolide]	Agonist	–
CCc1ccccc1O [2-ethylphenol]	Agonist	–
COc1cnccn1 [2-methoxypyrazine]	Non-agonist	–
Cc1nccnc1C [2,3-dimethylpyrazine]	–	Non-agonist
C1CCCCCCCCCCCCCC1 [Cyclopentadecane]	Non-agonist	–
O=C1CCCCCCCCC/C=C/CCCO1 [Habanolide]	Non-agonist	–
C=C(C)C1CC=C(C)C(OC(C)=O)C1 (single isomer, unassigned; (-)) [(-)Carvyl acetate mix]	Non-agonist	–
(S)-(-)-citronellal	–	Agonist
CCCCCCCC(=O)OCCc1ccccc1 [Phenethyl octanoate]	Non-agonist	–
ClC=CCl [1,2-dichlorethylene]	Non-agonist	–
COc1ccc(C)cc1 [4-methylanisole]	–	Non-agonist
CCCCCCCC(=O)OCCC(C)C [Isoamyl octanoate]	Non-agonist	–
C1CCNC1 [Pyrrolidine]	Non-agonist	–
CC(=O)c1c(C)c([N+](=O)[O-])c(C(C)(C)C)c([N+](=O)[O-])c1C [Musk ketone]	–	Non-agonist
CC(C)CS [Isobutyl mercaptan]	Non-agonist	–
CCC(=O)OCC(C)(C)OC(C)C1CCCC(C)(C)C1 (stereo not shown) [Helvetolide]	Non-agonist	–
CC(=O)OC/C=C(/C)CCC=C(C)C [Nerylacetate]	Non-agonist	–

Compound	Class (agonist / non-agonist / conflicting info.) for OR1A1 [1]	Class (agonist / non-agonist / conflicting info.) for OR1A1
CC(C)=CCCC(C)CC(=O)O (stereo not shown) [Citronellic acid]	Non-agonist	–
c1cnccn1 [Pyrazine]	Conflicting info.	–
O=C1CCCCCC/C=C\CCCCCCC1 [Globanone]	Non-agonist	–
OC1CCCCCCCCCCCCCC1 [Cyclopentadecanol]	Non-agonist	–
CCC(Br)C(=O)O (stereo not shown) [Bromobutyric acid]	Non-agonist	–
C/C=C/c1ccc(OC)c(OC)c1 [Methyl isoeugenol]	–	Agonist
O=C1CCCCCCCCCCCCCCO1 [Exaltolide]	Non-agonist	–
Ambrettolide	Non-agonist	–
CC(C)=CCC/C(C)=C\CO [Nerol]	Agonist	–
CCCCCCC(Br)C(=O)O (stereo not shown) [2-bromo octanoic acid]	Non-agonist	–
CCCCC(Br)C(=O)O (stereo not shown) [2-bromohexanoic acid]	–	Non-agonist
CC(C)(C)c1ccc(CCC=O)cc1 [Bourgeonal]	Conflicting info.	–
CCCCC/C=C/CCC=O [E-4-decanal]	Agonist	–
c1ccc2[nH]ccc2c1 [Indole]	–	Non-agonist
CCC(=O)c1ccccc1 [Propiophenone]	–	Agonist
CCCCCCCCC=O [Nonanal]	Conflicting info.	–
C=CC(O)CCCCC (stereo not shown) [1-octen-3-ol]	–	Non-agonist
CCCC(Br)C(=O)O (stereo not shown) [2-bromovaleric acid]	Non-agonist	–
CCc1nccnc1CC [2,3-diethyl pyrazine]	Conflicting info.	–
CCCCCCC/C=C/C=C/C=O [E,E-2,4-dodecadienal]	Non-agonist	–
O=C(O)/C=C(\CC(=O)O)C(=O)O [Trans-Aconitic acid]	–	Non-agonist
CCCCCCCCCCCCCC(C)=O [2-pentadecanone]	Non-agonist	–
CC(C)=CCC/C(C)=C/CC/C(C)=C/CO [Farnesol]	Non-agonist	–
CC(C)=CCC/C(C)=C\COC(=O)C(C)C [Neryl isobutyrate]	–	Non-agonist
Cc1cnc(C)cn1 [2,5 dimethyl pyrazine]	Non-agonist	–
OCCCCCCCCCO [1,9 nonanediol]	Non-agonist	–
CC(=O)CCc1ccc(O)cc1 [Raspberry ketone]	–	Non-agonist

Compound	Class (agonist / non-agonist / conflicting info.) for OR1A1 [1]	Class (agonist / non-agonist / conflicting info.) for OR1A1
CCCCCCCCCCC=O [Undecanal]	Non-agonist	–
CC/C=C\CCCCCC=O [Z-7-decanal]	Agonist	–
CC(C)C12CCC(C)(CC1)O2 [1,4-cineole]	Non-agonist	–
CC1COCc2cc3c(cc21)C(C)(C)C(C)C3(C)C (stereo not shown) [Galaxolide]	Non-agonist	–
CC/C=C/CC/C=C/C=O [E,E-26-nonadienal]	Non-agonist	–
CCCC(C)C=O (stereo not shown) [Methyl pentanal]	Non-agonist	–
CC(=O)c1cc2c(cc1C)C(C)(C)C(C)CC2(C)C (stereo not shown) [Tonalide]	–	Non-agonist
CC(C)=CCCC(C)=CC#N [Citralva]	–	Non-agonist
O=C1CCCCCCCCC1 [Cyclodecanone]	Non-agonist	–
CCC(=O)OC [Methyl propionate]	–	Non-agonist
O=C(O)CCC(=O)O [Succinic acid]	Non-agonist	–
O=C1CCCCCCCCCCCCCC1 [Cyclopentadecanone]	–	Non-agonist
CCCCCCCC(=O)CCCCCCC [8-pentadecanone]	Non-agonist	–
(+)-Menthone	–	Agonist
CCCCCC=CCCC=O [4-decenal]	Agonist	–
COC(OC)c1ccccc1 [Benzaldehyde dimethyl acetal]	–	Non-agonist
CC1(C)[C@H]2CC=C(C=O)[C@@H]1C2 [(R)-(-)-myrtenal]	Non-agonist	–
C=C(C)C1CC=C(C)[C@@H](O)C1 (single isomer, unassigned; (-)) [(-)-Carveol]	Agonist	–
O=C1CCCCCCCCCC1 [Cycloundecanone]	Non-agonist	–
CC(C)=CCC[C@@H](C)CCO [(R)-(+)-citronellol]	–	Agonist
CC1C/C=C/CCCCCCCCC(=O)C1 (stereo not shown) [Cosmone]	Agonist	–
Farnesene	Non-agonist	–
COc1ccccc1 [Anisole]	Non-agonist	–
Cc1ccc(C(C)C)c(O)c1 [Thymol]	–	Conflicting info.
CCc1cnccn1 [2-ethylpyrazine]	–	Non-agonist
